The subject of one experiment is Wheat. Description: Whole plant screen for plant growth regulator activity, wheat (WW). The conditions noted are these: WW, 4000 ppm (4 kg/ha), visual score after 2-6 weeks; for T = Tillering or side shooting: * = decrease in tillering. The class given is in vivo, Wheat (Timmo). The method in brief:
(§1)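 Plants were sprayed with compound at 4000 ppm (4 kg/ha in a 1000 l/ha field volume) by tracksprayer and kept in a glasshouse under a 16 h photoperiod: maize and rice at 25° C. day/22° C. night, wheat and barley at 16° C. day/13° C. night. Morphology was scored visually after 2-6 weeks against formulation blanks.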

For another experiment, the system named is Apple. Description: Whole plant screen for plant growth regulator activity, apple (AP). The conditions noted are these: 4000 ppm (4 kg/ha), visual score after 2-6 weeks. In kind it is in vivo, Apple (Red Delicious). Here is the method: (§2) Compounds 1 to 3 in Table 1 were tested for plant growth regulator activity against five species for various growth effects relevant to plant growth regulation.
(§3) The plant species used in this screen are presented in Table II with the leaf stage at which they were sprayed. Each chemical was applied at 4000 ppm (4 kg/ha in a 1000 l/ha field volume) using a tracksprayer and a SS8004E (Teejet) nozzle.
(§4) After spray the plants were grown in a glasshouse with 25° C. day/22° C. night temperatures and supplementary lighting was supplied when necessary (from mercury vapour lamps), to provide a 16 hour photoperiod. The exception to this were the temperate cereals, wheat and barley which were grown in 16° C. day/13° C. night temperatures.
(§5) After 2-6 weeks in the glasshouse, depending on the time of year, the plants were visually assessed for morphological characteristics. Formulation blanks were used as controls to assess the plants.
(§6) Additional compounds in Table I were tested for plant growth regulator activity using the method of Example 60 except that Tomato was included in the test as an additional species. Tomato, Ailsa Craig, was grown in a single 3 inch pot in peat and treated at the 2 to 21/2 leaves growth stage. The results were presented in Table IV in which Tomato is indicated by the code TO and the Key is otherwise as for Table III.

In a further experiment the test system is Apples. Description: Intermediate Retardant Test, apples, foliar spray compared with root drench. The conditions noted are these: 672 h, approximately 28 days, Table IX, read-out: Percentage Reduction in Height of Apples (Compared to formulation blank); for percent reduction in plant height at 2000 ppm: 2000 ppm (Foliar); for percent reduction in plant height at 2000 µg/mL: soil, 2000 pmm (Root), root drench. In kind it is in vivo, Apples (Red Delicious). The text has this: (§7) Three species are involved in this test RICE, SPRING-BARLEY and APPLES. The variety and growth stages at spray are outlined in Table V. Compounds were applied at 500 ppm and 2000 ppm respectively (0.5 kg and 2 kg/ha^-1 at a field volume of 1000 l/ha^-1) as an overall spray except in the case of certain tests on APPLES. This gives a foliar and root component in the test, i.e., this test will detect the activity of both root and foliar acting compounds. The intermediate retardant test on APPLES of which the results are given in Table IX was different, in that a foliar (only) spray at 2000 ppm was compared with a root drench, also at 2000 ppm. The rice was grown in 4" `paddy` pots, i.e., the roots and bottom of the stems are immersed in water under conditions corresponding to those in paddy fields. Spring barley and apples were grown in 4" pots. The plants were assessed for height to top-most ligule at approximately 28 days after treatment for spring barley and rice and for height to apex at approximately 28 days after the treatment for apples. In each case the result for the 500 ppm and 2000 ppm test for each compound is compared to the height of the formulation blank in that test, presented as a percentage reduction in height compared to the formulation blank.
(§8) The prior art compound was compared with compounds of the present invention in side-by-side comparisons using the Intermediate Retardant Test described in Example 62, and the results are given in Tables X to XII where `A` is the prior art compound, 2-methyl-1-isopropyl-1-(pyrimidin-5-yl)-propan-1-ol).

The next experiment has as its system Barley. Description: Whole plant screen for plant growth regulator activity, barley (BR). In kind it is in vivo, Barley (Atem). The conditions noted are these: BR, 4000 ppm (4 kg/ha), visual score after 2-6 weeks; for T = Tillering or side shooting: * = decrease in tillering. The method in brief:
as §1

The subject of a further experiment is Spring Barley. Description: Intermediate Retardant Test, spring barley. The conditions noted are these: Hordeum vulgare, 672 h, overall spray, approximately 28 days, Table VII, read-out: Percentage Reduction in Height of Spring Barley (Compared to formulation blank). In kind it is in vivo, Spring Barley (Atem/kym).
Source text: as §7, §8

Experiment [1] has as its system Rice. Description: Intermediate Retardant Test, rice. The class given is in vivo, Rice (Ishikari). The conditions noted are these: Oryza sativa, 672 h, overall spray, approximately 28 days, Table VI, read-out: Percentage Reduction in Height of Rice (Compared to formulation blank).
Source text: as §7, §8

A further experiment deals with Tomato. Description: Whole plant screen for plant growth regulator activity, tomato (TO). The class given is in vivo, Tomato (Ailsa Craig). The conditions noted are these: 4000 ppm (4 kg/ha), visual score after 2-6 weeks. The method in brief:
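Tomato (Ailsa Craig), one plant per 3-inch peat pot, sprayed at 2–2½ leaves with 4000 ppm (4 kg/ha in 1000 l/ha) by track sprayer. Glasshouse 25 °C day/22 °C night, 16 h photoperiod; morphology visually scored after 2–6 weeks against formulation blanks.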

Experiment [2] has as its system Rice. Description: Whole plant screen for plant growth regulator activity, rice (RC). The class given is in vivo, Rice (Ishikari). The conditions noted are these: 4000 ppm (4 kg/ha), visual score after 2-6 weeks. Here is the method: as §2, §3, §4, §5, §6

As to `CC(C)C#CC(O)(c1cncnc1)C(C)C` (stereo not drawn) [Compound 9, 2-Methyl-1-(3-methylbut-1-yne)-1-(pyrimidin-5-yl)propan-1-ol], in the experiment on Wheat, the “G = Greening effect” value is given as 2 (31-60%), the “I = Interligular or internodal length reduction” value is listed as 3 (61-100%), the “R = Retardation” value is recorded as 2 (31-60%) and the “T = Tillering or side shooting” value is 2 (31-60%). Moreover, in the experiment with Apple, the “G = Greening effect” value is on record as 1 (10-30%), the “I = Interligular or internodal length reduction” value is on record as 3 (61-100%) and the “R = Retardation” value is on record as 3 (61-100%). Further, in the experiment on Apples, the percent reduction in plant height at 2000 ppm was 0% and the percent reduction in plant height at 2000 µg/mL turned out to be 63%. Also, in the experiment with Barley, the “G = Greening effect” value is 2 (31-60%), the “I = Interligular or internodal length reduction” value is reported as 3 (61-100%), the “R = Retardation” value is 2 (31-60%) and the “T = Tillering or side shooting” value is 2 (31-60%). For the same compound, in the experiment on Spring Barley, the percent reduction in plant height at 500 ppm came to 20% and the percent reduction in plant height at 2000 ppm turned out to be 49%. Further, in the experiment with Rice [1], the Percent reduction in rice height vs formulation blank at 500 ppm was 11% and the Percent reduction in rice height vs formulation blank at 2000 ppm came out at 18%. Also, in the experiment on Tomato, the “G = Greening effect” value is 1 (10-30%), the “I = Interligular or internodal length reduction” value is 1 (10-30%) and the “R = Retardation” value is given as 1 (10-30%). Besides, in the experiment with Rice [2], the “A = Apical damage” value is recorded as 1 (10-30%), the “G = Greening effect” value is 1 (10-30%), the “I = Interligular or internodal length reduction” value was 1 (10-30%) and the “R = Retardation” value was 1 (10-30%).
`CC(C)C#CC(O)(c1cncnc1)C(C)(C)C` (stereo not drawn) [Compound 18, 2,2-Dimethyl-1-(3-methylbut-1-yne)-1-(pyrimdin-5-yl)-propan-1-ol]: in the experiment with Wheat, the “I = Interligular or internodal length reduction” value was 3 (61-100%), the “R = Retardation” value was 2 (31-60%) and the “T = Tillering or side shooting” value is 2 (31-60%). For the same compound, in the experiment with Apple, the “G = Greening effect” value is listed as 2 (31-60%), the “I = Interligular or internodal length reduction” value was 3 (61-100%) and the “R = Retardation” value is reported as 3 (61-100%). Also, in the experiment on Apples, the percent reduction in plant height at 2000 ppm turned out to be 0% and the percent reduction in plant height at 2000 µg/mL was 69%. Moreover, in the experiment on Barley, the “G = Greening effect” value is listed as 2 (31-60%), the “I = Interligular or internodal length reduction” value is given as 3 (61-100%), the “R = Retardation” value is listed as 2 (31-60%) and the “T = Tillering or side shooting” value is reported as 3 (61-100%). In the experiment on Spring Barley, the percent reduction in plant height at 500 ppm amounted to 17% and the percent reduction in plant height at 2000 ppm amounted to 55%. Further, in the experiment with Rice [1], the Percent reduction in rice height vs formulation blank at 500 ppm stood at 13% and the Percent reduction in rice height vs formulation blank at 2000 ppm worked out at 15%. Besides, in the experiment with Tomato, the “I = Interligular or internodal length reduction” value was 3 (61-100%) and the “R = Retardation” value was 3 (61-100%). Besides, in the experiment with Rice [2], the “G = Greening effect” value was 1 (10-30%), the “I = Interligular or internodal length reduction” value is recorded as 3 (61-100%) and the “R = Retardation” value was 3 (61-100%).
Consider `CC(C)CCCC(O)(c1cncnc1)C(C)(C)C` (stereo not drawn) [Compound 17, 2,2-Dimethyl-1-(4-methylpentyl)-1-(pyrimidin-5-yl)-propan-1-ol], for which the “G = Greening effect” value was 2 (31-60%) with Wheat; 1 (10-30%) in the experiment with Apple; 2 (31-60%) with Barley; 1 (10-30%) with Tomato; 1 (10-30%) in the experiment on Rice [2]. The “I = Interligular or internodal length reduction” value with Wheat is listed as 3 (61-100%); in the experiment on Apple, 3 (61-100%); in the experiment on Barley it was 3 (61-100%); in the experiment with Tomato, 1 (10-30%); in the experiment on Rice [2], 2 (31-60%). Further, the “R = Retardation” value is given as 2 (31-60%) with Wheat; 3 (61-100%) in the experiment with Apple; 2 (31-60%) in the experiment on Barley; 1 (10-30%) with Tomato; 2 (31-60%) in the experiment with Rice [2]. Further, the “T = Tillering or side shooting” value is on record as 2 (31-60%) in the experiment on Wheat, 2 (31-60%) with Barley and 1 (10-30%) in the experiment on Rice [2] (* = decrease in tillering). The percent reduction in plant height at 2000 ppm worked out at 17% in the experiment on Apples and 28% with Spring Barley. For the same compound, in the experiment on Apples, the percent reduction in plant height at 2000 µg/mL stood at 66%. Besides, in the experiment on Spring Barley, the percent reduction in plant height at 500 ppm stood at 2%. The Percent reduction in rice height vs formulation blank at 500 ppm in the experiment with Rice [1] was found to be 7%. Besides, the Percent reduction in rice height vs formulation blank at 2000 ppm with Rice [1] was 10%.
Take `CC(C)CCC(O)(c1cncnc1)C(C)C` (stereo not drawn) [Compound 13, 2-Methyl-1-(3-methylbutyl)-1-(pyrimidin-5-yl)-propan-1-ol]: in the experiment on Wheat, the “I = Interligular or internodal length reduction” value is 3 (61-100%), the “R = Retardation” value was 2 (31-60%) and the “T = Tillering or side shooting” value is recorded as 1 (10-30%). Moreover, in the experiment on Apple, the “G = Greening effect” value is listed as 2 (31-60%), the “I = Interligular or internodal length reduction” value was 3 (61-100%) and the “R = Retardation” value is 3 (61-100%). Moreover, in the experiment with Apples, the percent reduction in plant height at 2000 ppm amounted to 7% and the percent reduction in plant height at 2000 µg/mL stood at 70%. For the same compound, in the experiment on Barley, the “G = Greening effect” value is 2 (31-60%), the “I = Interligular or internodal length reduction” value is on record as 3 (61-100%), the “R = Retardation” value is recorded as 2 (31-60%) and the “T = Tillering or side shooting” value is 2 (31-60%). In the experiment with Spring Barley, the percent reduction in plant height at 500 ppm is 2% and the percent reduction in plant height at 2000 ppm was determined as 11%. In the experiment with Rice [1], the Percent reduction in rice height vs formulation blank at 500 ppm amounted to 8% and the Percent reduction in rice height vs formulation blank at 2000 ppm came to 9%. For the same compound, in the experiment with Tomato, the “I = Interligular or internodal length reduction” value was 2 (31-60%) and the “R = Retardation” value was 2 (31-60%). Further, in the experiment on Rice [2], the “G = Greening effect” value was 1 (10-30%), the “I = Interligular or internodal length reduction” value is on record as 2 (31-60%) and the “R = Retardation” value was 2 (31-60%).

Source of the values: patent publication US4875922A, “Pyrimidine derivatives” (Imperial Chemical Industries PLC, priority 1986, dated 1989).
